Source: publication PMC4789278, “Pharmacological inhibition of LSD1 for the treatment of MLL-rearranged leukemia” (Journal of Hematology & Oncology, 2016)
Like-named read-outs stand apart in the source and are kept apart here.

What was measured:
[1] = molecular target: T1, human MAO-A (Homo sapiens, UniProt P21397); assay: MAO-A inhibition (MAO-Glo); type: biochemical
T1 construct: purchased Sigma
T1 sequence (P21397 1-527): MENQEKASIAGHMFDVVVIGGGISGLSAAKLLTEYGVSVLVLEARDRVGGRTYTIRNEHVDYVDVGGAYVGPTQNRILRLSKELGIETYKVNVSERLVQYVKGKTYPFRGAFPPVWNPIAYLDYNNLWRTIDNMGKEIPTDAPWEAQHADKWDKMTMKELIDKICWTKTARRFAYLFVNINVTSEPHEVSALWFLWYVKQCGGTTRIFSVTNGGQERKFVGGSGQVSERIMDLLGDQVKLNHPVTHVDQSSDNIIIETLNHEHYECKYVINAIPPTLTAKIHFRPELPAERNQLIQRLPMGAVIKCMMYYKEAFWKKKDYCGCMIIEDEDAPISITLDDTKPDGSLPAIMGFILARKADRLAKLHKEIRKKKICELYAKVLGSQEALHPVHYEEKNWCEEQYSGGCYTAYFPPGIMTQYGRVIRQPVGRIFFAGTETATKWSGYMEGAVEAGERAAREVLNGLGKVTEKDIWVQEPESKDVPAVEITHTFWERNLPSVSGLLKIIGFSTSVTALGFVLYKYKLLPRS
Procedure: The cyclopropylamine LSD1 inhibitors were generally derived from MAO-A/-B inhibitor tranylcypromine, an antidepression drug. Because MAO-A and -B play important roles in the degradation of neurotransmitters (e.g., serotonin and dopamine) in the central nervous system, selective inhibition for LSD1 is highly desirable.
Recombinant human MAO-A and -B were purchased from Sigma. The inhibitory activity was determined using MAO-Glo assay kit (Promega). In brief, following the manufacturer’s protocol, assays were performed in 384-well white plates (Corning) using MAO-A or -B (100 nM) with a final volume of 20 μL. Reactions were quenched after 60 min by adding reconstituted luciferin detection reagent (20 μL/well); 20 min after addition of the detection reagent, the luminescence of each well was measured using Beckman DTX-880 microplate reader. IC50 calculation was similar to that of LSD1.

[2] = tested on: MV4-11 cells; assay: FACS-based Annexin-V apoptosis assay; type: cell-based, human
Procedure: (§1) For Annexin V apoptosis assay, 10^5 cells/well were incubated with increasing concentrations of a compound for 7 or 14 days. Apoptosis was determined using the FITC Annexin V Apoptosis Detection Kit I (BD Bioscience) using the manufacturer’s protocol. For other FACS assays, cells were labeled with fluorochrome-conjugated monoclonal antibodies against human CD14, CD11b, CD45, or CD33 (BD Biosciences) according to the manufacturer’s recommendation. Cells were analyzed using a FACS Calibur (BD Biosciences/Applied Biosystems), and data were processed using the program Flowjo (version7.6.5).

[3] = tested on: MV4-11 cells; assay: FACS of differentiation markers CD14 / CD11b; type: cell-based, human; details: for cell populations expressing high levels of CD14: treatment for 12 days
Procedure: Importantly, only these stem-like cancer cells can form new tumors when transplanted into a new host, while the other non-stem cancer cells fail to do so. These stem-like cancer cells are more drug resistant and believed to be responsible for tumor metastasis and relapse. […] CD14 and CD11b are two cell surface proteins characteristic to differentiated macrophages/monocytes. […] Similarly, incubation with 2 led to considerably more CD11b^+ cells (Fig. 3b).
as §1

[4] = tested on: human primary leukemia cells from an AML patient with MLL-ENL fusion oncogene; assay: Colony-forming assay; type: cell-based; details: 336 h, colonies counted after 14 days, read-out: colony-forming ability EC50
Procedure: Colony-forming assay using non-serum culture media represents a useful method to assess self-renewal capacity of stem-like cancer cells. The number of cell colonies formed in the assay reflects the proportion of stem-like cells in a given number of cancer cells. […] Human MLL-rearranged AML samples will be obtained from the Children’s Oncology Group (COG) Biopathology Center, in accordance with the IRB-approved protocol H-24170. The colony-forming assay was performed according to our previously published method. After 14 days, the colony number of each culture dish was counted and imported into Prism 5.0 and EC50 values were determined by using the sigmoidal dose response curve fitting in the software.

[5] = tested on: HoxA9 and Meis1 expression in MV4-11 cells; assay: Quantitative real-time PCR of HoxA9 and Meis1; type: cell-based, human
Procedure: Next, we examined whether LSD1 inhibition can block the expression of HoxA9 and Meis1, whose overexpression has been observed in MLL-rearranged leukemia.
For 3 days, 10^4 cells/well were incubated with a compound, and the RNA was extracted from cells using RNeasy mini kit (QIAGEN); 100–1000 ng of total RNA was reverse transcribed using iScript™ Reverse Transcription Supermix (Bio-Rad) using the manufacturer’s protocol. Quantitative real-time PCR was carried out using Fast SYBR Green Master Mix (Applied Biosystems) according to the manufacturer’s instructions. Measurements were performed in triplicate, using GAPDH as the reference gene. Real-time PCR was performed using Biosystems Step One Plus detection system. The following sequences of primers are used: […]

[6] = tested on: gene expression in MV4-11 cells; assay: Microarray / GSEA; type: cell-based, human; details: 7 days
Procedure: To this end, triplicate samples of MV4-11 cells were treated with compounds 1 and 2 and the RNA of these samples was isolated, amplified, and hybridized to Illumina HT-12 microarrays. The microarray data were log2-transformed and normalized to have the same median values for comparative analysis. Moderate t test was applied to search for genes that were differentially expressed between the control and compound treated samples, using the filter thresholds of p values <0.05 and fold changes >4. […] Next, we used gene set enrichment analysis (GSEA) in an effort to find the possible mechanism(s) for the LSD1 inhibition-mediated antileukemia activity.
For 7 days, 10^5 cells/well were incubated with compounds. Cells were treated with Trizol® Reagent, frozen in liquid nitrogen, and shipped to Asuragen, Inc. (Austin, TX) for microarray experiments. RNA from these samples was isolated, amplified, and hybridized to Illumina Human HT-12 v4 arrays according to the manufacturer’s protocol. Microarray data were log2 transformed and normalized to have the same median for all the arrays. Moderate t statistics were used to find genes that were differentially expressed between the samples of interest. Benjamini and Hochberg method was used to correct for multiple comparisons. […]

[7] = range covers MAO-A and MAO-B, read-out: IC50 against MAO-A and -B (range over both enzymes)

| Structure (SMILES) | IC50 [1, 7] [µM] | IC50 ([1]; read-out: MAO-A IC50) [µM] | apoptosis of MV4-11 cells ([2]; 30 nM, day 7) [%] | apoptosis of MV4-11 cells ([2]; 30 nM, day 14) [%] | apoptosis of MV4-11 cells ([2]; 300 nM, day 7) [%] | apoptosis of MV4-11 cells ([2]; 300 nM, day 14) [%] | cell populations expressing high levels of CD14 [3] [%] | EC50 [4] [µM] | expression of HoxA9 and Meis1 [5] | expression of hematopoietic differentiation and pro-apoptotic gene sets (GSEA) [6] | apoptosis of MV4-11 cells ([2]; 0.1 μM, 7 days) [%] | apoptosis of MV4-11 cells ([2]; 0.1 μM, 14 days) [%] | apoptosis of MV4-11 cells ([2]; 1 μM, 7 days) [%] | apoptosis of MV4-11 cells ([2]; 1 μM, 14 days) [%] | CD11b+ cells ([3]; 1 μM) [%] |
| --- | --- | --- | --- | --- | --- | --- | --- | --- | --- | --- | --- | --- | --- | --- | --- |
| CN1CCN(C(=O)CNC2CC2c2ccc(OCc3ccccc3)cc2)CC1 (stereo not drawn) [Compound 1] | 17.5 to 480 | 17.5 | 12 | 20 | 13 | 26 | > 90 | 0.43 | significantly decrease the expression of both HoxA9 and Meis1 in a dose-dependent manner | significant upregulation |  |  |  |  |  |
| CN1CCN(C(=O)CNC2CC2c2ccc(-c3ccc(F)nc3)cc2)CC1 (stereo not drawn) [Compound 2] | 17.5 to 480 | 120 |  |  |  |  | > 90 | 0.52 | significantly decrease the expression of both HoxA9 and Meis1 in a dose-dependent manner | significant upregulation | 11 | 13 | 45 | 49 | 19.5 |
